Measurements taken from PubChem BioAssay AID1159565 (GlaxoSmithKline (GSK), 2015).
pIC50: −log10 of the molar value. Active and inactive are the calls of the source. No rule for the calls is given here.

Tested on: T. cruzi-infected H9C2 cardiomyocytes, high-content imaging
Experiment: intracellular T. cruzi amastigote inhibition, imaging, H9C2 host cardiomyocytes, host toxicity (AID 1159565);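 also: infected cells incubated 72 h after plating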
[1] = measured here: H9C2 host cell toxicity
[2] = measured here: amastigotes per cell

Structure (SMILES)	pIC50	pIC50 [1]	pIC50 [2]	IC50
COc1ccc(-c2cnc(C)o2)cc1S(=O)(=O)Nc1ccc(C)cc1C	5.49	< 4.30	5.49	–
CCOC(=O)c1noc(N)c1-c1ccccc1	–	< 4.30	< 4.30	> 50 µM (inactive)
Cn1ccnc1CN1CCc2[nH]cnc2C1c1ccccc1OCc1ccccc1 (stereo not given)	–	< 4.30	< 4.30	> 50 µM (inactive)
Nc1ncnc2c1ncn2[C@@H]1O[C@H](CO)C[C@H]1O	5.70	5.30	5.89	–
NC(=O)c1ncc(N[C@@H]2CCCNC2)nc1Nc1cccc(Cl)c1	6.40	5.89	6.60	–
O=c1cc(NCCCNC2CCOc3c(I)cc(Cl)cc32)[nH]c2ccccc12 (stereo not given)	6.49	4.60	6.80	–
O=c1[nH]c(NCCCNCc2cc(Br)cc(Br)c2)nc2ccsc12	6.20	4.60	6.40	–
COc1ccc(C(=O)NC2CCN(CCn3c(=O)ccc4ncc(F)cc43)CC2)cc1Cl	6.20	< 4.30	6.49	–
OCC1CCCCN1c1cc(-c2ccccn2)nc(Nc2ccccc2)n1 (stereo not given)	5.40	6.30	5.70	–
c1ccc(CNc2cccc3ccncc23)cc1	5.20	< 4.30	5.30	–
COc1ccc(CNc2cc(C3CC3)nc(-c3nccn3C)n2)cc1	6.10	6.00	6.20	–
Cc1cc(Nc2ccc(C#N)c(Cl)c2C)n[nH]1	–	< 4.30	4.70	> 50 µM (inactive)
O=C(Nc1nc(-c2ccccn2)cs1)N1C[C@H]2C[C@@]2(c2ccccc2)C1	6.30	6.10	6.60	–
O=C(c1cccc(Cl)c1Cl)N1CCn2c1nc(-c1ccncc1)cc2=O	6.49	< 4.30	6.49	–
Cc1nnnn1-c1cccc(C(=O)N2CCC[C@@]3(C)c4ncncc4CCC23)c1 (stereo not given in full)	6.49	< 4.30	6.49	–
CC(=O)Nc1ccc(-c2ccnc(Nc3cccc(C#N)c3)n2)cc1	5.20	4.89	5.49	–
O=C(CSc1ccc(F)cc1)N[C@@H](Cc1cnc[nH]1)C(=O)NCCc1ccccc1	6.30	< 4.30	6.30	–
Cc1ccc2nc(N(Cc3cccnc3)C(=O)CCc3ccccc3)sc2c1	7.40	< 4.30	7.49	–
O=S(=O)(c1cccc(CSc2nnc(-c3ccc4c(c3)OCO4)o2)c1)N1CCOCC1	7.00	4.60	7.40	–
NCc1csc(Nc2cc(Oc3ccccc3)ncn2)n1	4.60	< 4.30	4.49	–
CC(C(=O)Nc1ccc(Br)cc1)N1CCN(c2ccc([N+](=O)[O-])cc2)CC1 (stereo not given)	5.60	< 4.30	5.49	–
O=C(Nc1ccc(C(F)(F)F)cc1)NC1(C(=O)NCc2ccco2)CCCCC1	–	< 4.30	< 4.30	> 50 µM (inactive)
Cn1nc([N+](=O)[O-])nc1N1CCCCC1	4.89	< 4.30	6.00	–
O=C(NCCc1csc(-c2ccc(F)cc2)n1)c1cccs1	6.40	< 4.30	6.60	–
Cc1cc2nc(N3CC[C@H]3C(N)=O)nc(Nc3cc(C4CC4)[nH]n3)c2s1	5.10	6.30	5.40	–
